Assay results taken from EPA's CvTdb concentration-time database.

Columns and labels:
Rat [1] = test: concentration in kidney after dosing; conditions: 864 h; dosed: Perfluorooctane Sulfonate; 20 mg/kg; oral; Female; F344
Rat [2] = test: concentration in brain after dosing; conditions: 24 h; dosed: Perfluorooctane Sulfonate; 20 mg/kg; oral; Male; Harlan Sprague Dawley
Rat [3] = test: concentration in plasma after dosing; conditions: dosed: Perfluorooctane Sulfonate, 2 mg/kg, iv, Male, F344
Rat [4] = test: concentration in kidney after dosing; conditions: 6 h; dosed: Perfluorooctane Sulfonate; 2 mg/kg; oral; Female; Harlan Sprague Dawley
Rat [5] = test: concentration in liver after dosing; conditions: 24 h; dosed: Perfluorooctane Sulfonate; 2 mg/kg; oral; Female; Harlan Sprague Dawley
Rat [6] = test: concentration in kidney after dosing; conditions: 864 h; dosed: Perfluorooctane Sulfonate; 2 mg/kg; oral; Female; Harlan Sprague Dawley
Rat [7] = test: concentration in plasma after dosing; conditions: dosed: Perfluorooctane Sulfonate, 2 mg/kg, iv, Female, F344
Rat [8] = test: concentration in plasma after dosing; conditions: dosed: Perfluorooctane Sulfonate, 2 mg/kg, iv, Male, F344; remark: listed apart in the source
Rat [9] = test: concentration in brain after dosing; conditions: 6 h; dosed: Perfluorooctane Sulfonate; 20 mg/kg; oral; Male; Harlan Sprague Dawley
Rat [10] = test: concentration in liver after dosing; conditions: 6 h; dosed: Perfluorooctane Sulfonate; 20 mg/kg; oral; Female; F344
Rat [11] = test: concentration in liver after dosing; conditions: 3 h; dosed: Perfluorohexanoic Acid; 80 mg/kg; oral; Male; Harlan Sprague Dawley
Rat [12] = test: concentration in liver after dosing; conditions: 1 h; dosed: Perfluorohexanoic Acid; 80 mg/kg; oral; Female; Harlan Sprague Dawley
Rat [13] = test: concentration in plasma after dosing; conditions: dosed: Perfluorohexanoic Acid, 40 mg/kg, oral, Male, Harlan Sprague Dawley
Rat [14] = test: concentration in plasma after dosing; conditions: dosed: Perfluorohexanoic Acid, 40 mg/kg, oral, Male, Harlan Sprague Dawley; remark: listed apart in the source
Rat [15] = test: concentration in plasma after dosing; conditions: 0.75 h; dosed: Perfluorohexanoic Acid; 40 mg/kg; iv; Male; F344
Rat [16] = test: concentration in plasma after dosing; conditions: 1 h; dosed: Perfluorohexanoic Acid; 40 mg/kg; iv; Male; F344
Rat [17] = test: concentration in kidney after dosing; conditions: 6 h; dosed: Perfluorohexanoic Acid; 80 mg/kg; oral; Female; Harlan Sprague Dawley
Rat [18] = test: concentration in plasma after dosing; conditions: 1.5 h; dosed: Perfluorohexanoic Acid; 40 mg/kg; iv; Male; F344
Rat [19] = test: concentration in kidney after dosing; conditions: 6 h; dosed: Perfluorohexanoic Acid; 80 mg/kg; oral; Female; Harlan Sprague Dawley; remark: listed apart in the source
Rat [20] = test: concentration in plasma after dosing; conditions: 1 h; dosed: Gemfibrozil; 4.29 mg/kg; oral; Male; Sprague-Dawley
Rat [21] = test: concentration in plasma after dosing; conditions: 10 h; dosed: Gemfibrozil; 50 mg/kg; oral; Male; Sprague-Dawley
Rat [22] = test: concentration in plasma after dosing; conditions: 6 h; dosed: Gemfibrozil; 4.29 mg/kg; oral; Male; Sprague-Dawley
Rat [23] = test: concentration in plasma after dosing; conditions: 2 h; dosed: Gemfibrozil; 4.29 mg/kg; oral; Male; Sprague-Dawley
Rat [24] = test: concentration in plasma after dosing; conditions: 18 h; dosed: Gemfibrozil; 100 mg/kg; oral; Male; Sprague-Dawley
Rat [25] = test: concentration in plasma after dosing; conditions: 1 h; dosed: Gemfibrozil; 100 mg/kg; oral; Male; Sprague-Dawley
Rat [26] = test: concentration in plasma after dosing; conditions: 4 h; dosed: Gemfibrozil; 100 mg/kg; oral; Male; Sprague-Dawley
Rat [27] = test: concentration in plasma after dosing; conditions: 0.25 h; dosed: Gemfibrozil; 100 mg/kg; oral; Male; Sprague-Dawley
Rat [28] = test: concentration in plasma after dosing; conditions: 1.5 h; dosed: 2-Methyltetrahydrofuran; 40 mg/kg; iv; Male; Harlan Sprague Dawley
Rat [29] = test: concentration in plasma after dosing; conditions: 0.2 h; dosed: 2-Methyltetrahydrofuran; 40 mg/kg; iv; Male; Harlan Sprague Dawley
Rat [30] = test: concentration in brain after dosing; conditions: 0.75 h; dosed: 2-Methyltetrahydrofuran; 40 mg/kg; iv; Male; Harlan Sprague Dawley
Rat [31] = test: concentration in brain after dosing; conditions: 7 min; dosed: 2-Methyltetrahydrofuran; 40 mg/kg; iv; Male; Harlan Sprague Dawley
Rat [32] = test: concentration in brain after dosing; conditions: 4 h; dosed: 2-Methyltetrahydrofuran; 40 mg/kg; iv; Male; Harlan Sprague Dawley
Rat [33] = test: concentration in plasma after dosing; conditions: 1.5 h; dosed: 2-Methyltetrahydrofuran; 40 mg/kg; iv; Male; Harlan Sprague Dawley; remark: listed apart in the source
Rat [34] = test: concentration in brain after dosing; conditions: 0.2 h; dosed: 2-Methyltetrahydrofuran; 40 mg/kg; iv; Male; Harlan Sprague Dawley
Rat [35] = test: concentration in plasma after dosing; conditions: 0.2 h; dosed: 2-Methyltetrahydrofuran; 40 mg/kg; iv; Male; Harlan Sprague Dawley; remark: listed apart in the source
Rat [36] = test: concentration in brain after dosing; conditions: 2 h; dosed: 2-Methyltetrahydrofuran; 40 mg/kg; iv; Male; Harlan Sprague Dawley
Rat [37] = test: concentration in plasma after dosing; conditions: 2 min; dosed: 2-Methyltetrahydrofuran; 40 mg/kg; iv; Female; Harlan Sprague Dawley
Rat [38] = test: concentration in plasma after dosing; conditions: dosed: 678-39-7, 40 mg/kg, iv, Male, F344
Rat [39] = test: concentration in plasma after dosing; conditions: dosed: 678-39-7, 40 mg/kg, iv, Female, Harlan Sprague-Dawley

O=S(=O)([O-])C(F)(F)C(F)(F)C(F)(F)C(F)(F)C(F)(F)C(F)(F)C(F)(F)C(F)(F)F [Perfluorooctane Sulfonate]
Conditions | concentration in brain [ng/g] | concentration in kidney [ng/g] | concentration in liver [ng/g]
Rat [1] | – | 38400 | –
Rat [2] | 11600 | – | –
Rat [4] | – | 12700 | –
Rat [5] | – | – | 29400
Rat [6] | – | 1390 | –
Rat [9] | 4810 | – | –
Rat [10] | – | – | 139000

Conditions | concentration in plasma [ng/mL]
Rat [3], 12 h | 5170
Rat [3], 1200 h | 1700
Rat [7], 1 h | 4870
Rat [7], 528 h | 2180
Rat [8], 6 h | 4060
Rat [8], 528 h | 1840
Rat [8], 3216 h | 96.4

O=C(O)C(F)(F)C(F)(F)C(F)(F)C(F)(F)C(F)(F)F [Perfluorohexanoic Acid]
Conditions | concentration in kidney [ng/g] | concentration in liver [ng/g] | concentration in plasma [ng/mL]
Rat [11] | – | 37400 | –
Rat [12] | – | 41600 | –
Rat [15] | – | – | 15200
Rat [16] | – | – | 3100
Rat [17] | 2180 | – | –
Rat [18] | – | – | 175
Rat [19] | 9420 | – | –

concentration in plasma [ng/mL]
Conditions | 0.25 h | 0.75 h | 6 h | 12 h
Rat [13] | 44500 | – | 26700 | –
Rat [14] | – | 78200 | – | 5210

Cc1ccc(C)c(OCCCC(C)(C)C(=O)O)c1 [Gemfibrozil]
Conditions | concentration in plasma [ng/mL]
Rat [20] | 142
Rat [21] | 4380
Rat [22] | 388
Rat [23] | 234
Rat [24] | 3080
Rat [25] | 57500
Rat [26] | 7120
Rat [27] | 35700

CC1CCCO1 (configuration not stated) [2-Methyltetrahydrofuran]
Conditions | concentration in brain [ng/mL] | concentration in plasma [ng/mL]
Rat [28] | – | 14500
Rat [29] | – | 35700
Rat [30] | 11400 | –
Rat [31] | 29000 | –
Rat [32] | 1660 | –
Rat [33] | – | 12000
Rat [34] | 26500 | –
Rat [35] | – | 37000
Rat [36] | 8260 | –
Rat [37] | – | 55300

O=C(O)CCC(F)(F)C(F)(F)C(F)(F)C(F)(F)C(F)(F)C(F)(F)C(F)(F)F [Fluorotelomer acid 7+3]
concentration in plasma [ng/mL]
Conditions | 0.25 h | 1 h | 6 h | 24 h
Rat [38] | 115 | – | 2200 | –
Rat [39] | – | 1350 | – | 347
